The kinase profiling compilation of Christmann-Franck et al. (2016)

Assays:
Experiment in all cases: radiometric filter-binding kinase assay, Kinase HotSpot
Details in all cases: compound 0.5 µM; ATP 10 µM
[1] = molecular target: SIK2 (human) (UniProt Q9H0K1)
[2] = molecular target: WEE1 (human) (UniProt P30291)
[3] = molecular target: STK16 (human) (UniProt O75716)
[4] = molecular target: NEK6 (human) (UniProt Q9HC98)
[5] = molecular target: PIM2 (human) (UniProt Q9P1W9)
[6] = molecular target: TNK2 (human) (UniProt Q07912)
[7] = molecular target: CDK6 CCND1 (human) (UniProt Q00534+P24385)
[8] = molecular target: CDK9 CCNT1 (human) (UniProt P50750+O60563)
[9] = molecular target: PRKCA (human) (UniProt P17252)
[10] = molecular target: TSSK1B (human) (UniProt Q9BXA7)
[11] = molecular target: IGF1R (human) (UniProt P08069)
[12] = molecular target: AKT2 (human) (UniProt P31751)
[13] = molecular target: FES (human) (UniProt P07332)
[14] = molecular target: STK17A (human) (UniProt Q9UEE5)
[15] = molecular target: PIM3 (human) (UniProt Q86V86)
[16] = test system: FLT4 (human), P35916 [Q890H]
[17] = molecular target: PKN2 (human) (UniProt Q16513)
[18] = molecular target: GSG2 (human) (UniProt Q8TF76)
[19] = molecular target: MAP3K11 (human) (UniProt Q16584)
[20] = molecular target: BRSK1 (human) (UniProt Q8TDC3)
[21] = molecular target: GRK6 (human) (UniProt P43250)
[22] = molecular target: CSNK1G1 (human) (UniProt Q9HCP0)
[23] = molecular target: PRKD3 (human) (UniProt O94806)
[24] = molecular target: ALK (human) (UniProt Q9UM73)
[25] = molecular target: LTK (human) (UniProt P29376)
[26] = molecular target: MAPK13 (human) (UniProt O15264)
[27] = molecular target: NTRK2 (human) (UniProt Q16620)
[28] = molecular target: STK25 (human) (UniProt O00506)
[29] = molecular target: STK33 (human) (UniProt Q9BYT3)
[30] = molecular target: ULK2 (human) (UniProt Q8IYT8)
[31] = molecular target: GSK3A (human) (UniProt P49840)
[32] = molecular target: FGFR1 (human) (UniProt P11362)
[33] = molecular target: RPS6KA3 KD1 KD2 (human) (UniProt P51812)
[34] = molecular target: STK4 (human) (UniProt Q13043)
[35] = molecular target: NEK3 (human) (UniProt P51956)
[36] = molecular target: RPS6KA5 KD2 (human) (UniProt O75582)
[37] = molecular target: TAOK2 (human) (UniProt Q9UL54)
[38] = molecular target: MST1R (human) (UniProt Q04912)
[39] = molecular target: MAP2K1 (human) (UniProt Q02750)
[40] = molecular target: MAP2K2 (human) (UniProt P36507)
[41] = molecular target: CDK5 CDK5R1 p35 (human) (UniProt Q00535+Q15078)
[42] = molecular target: VRK1 (human) (UniProt Q99986)

STK33 (human), sequence (Q9BYT3 whole entry, looked up): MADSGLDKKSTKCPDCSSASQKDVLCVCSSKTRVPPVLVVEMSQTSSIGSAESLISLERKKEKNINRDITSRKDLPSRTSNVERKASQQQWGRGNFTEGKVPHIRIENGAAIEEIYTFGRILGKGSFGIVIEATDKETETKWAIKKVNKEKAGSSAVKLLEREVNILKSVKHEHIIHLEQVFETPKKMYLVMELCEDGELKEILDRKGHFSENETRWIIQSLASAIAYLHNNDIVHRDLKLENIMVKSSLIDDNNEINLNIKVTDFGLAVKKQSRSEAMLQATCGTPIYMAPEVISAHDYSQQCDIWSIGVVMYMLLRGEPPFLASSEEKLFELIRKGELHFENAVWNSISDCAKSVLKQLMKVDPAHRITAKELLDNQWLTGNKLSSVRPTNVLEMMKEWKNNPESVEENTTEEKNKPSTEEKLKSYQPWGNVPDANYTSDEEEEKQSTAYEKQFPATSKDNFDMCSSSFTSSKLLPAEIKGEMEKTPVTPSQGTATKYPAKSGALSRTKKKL
SIK2 (human), sequence (Q9H0K1 whole entry, looked up): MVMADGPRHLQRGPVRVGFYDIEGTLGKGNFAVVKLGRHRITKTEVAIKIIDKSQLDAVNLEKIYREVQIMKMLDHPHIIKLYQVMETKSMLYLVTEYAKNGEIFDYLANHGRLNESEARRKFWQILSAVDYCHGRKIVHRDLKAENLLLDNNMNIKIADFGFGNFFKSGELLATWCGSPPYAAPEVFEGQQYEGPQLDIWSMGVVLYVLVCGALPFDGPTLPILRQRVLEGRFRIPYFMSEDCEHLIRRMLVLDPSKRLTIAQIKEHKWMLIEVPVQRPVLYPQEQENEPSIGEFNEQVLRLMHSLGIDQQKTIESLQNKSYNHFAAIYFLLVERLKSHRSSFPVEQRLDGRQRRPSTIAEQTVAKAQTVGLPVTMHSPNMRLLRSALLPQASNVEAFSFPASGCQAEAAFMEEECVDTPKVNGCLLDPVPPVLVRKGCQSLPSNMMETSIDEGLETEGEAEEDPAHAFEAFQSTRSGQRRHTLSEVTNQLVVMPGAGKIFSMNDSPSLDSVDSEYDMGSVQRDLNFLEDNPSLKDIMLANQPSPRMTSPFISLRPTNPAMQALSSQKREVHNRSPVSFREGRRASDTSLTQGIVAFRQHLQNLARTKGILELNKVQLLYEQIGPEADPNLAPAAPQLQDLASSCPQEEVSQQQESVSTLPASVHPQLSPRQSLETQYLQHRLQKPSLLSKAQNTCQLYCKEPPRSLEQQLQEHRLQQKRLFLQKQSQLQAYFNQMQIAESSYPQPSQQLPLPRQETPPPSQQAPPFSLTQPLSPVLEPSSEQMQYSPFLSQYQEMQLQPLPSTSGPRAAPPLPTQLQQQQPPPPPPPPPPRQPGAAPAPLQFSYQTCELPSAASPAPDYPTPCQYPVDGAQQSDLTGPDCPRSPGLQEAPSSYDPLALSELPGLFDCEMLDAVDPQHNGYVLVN
PKN2 (human), sequence (Q16513 whole entry, looked up): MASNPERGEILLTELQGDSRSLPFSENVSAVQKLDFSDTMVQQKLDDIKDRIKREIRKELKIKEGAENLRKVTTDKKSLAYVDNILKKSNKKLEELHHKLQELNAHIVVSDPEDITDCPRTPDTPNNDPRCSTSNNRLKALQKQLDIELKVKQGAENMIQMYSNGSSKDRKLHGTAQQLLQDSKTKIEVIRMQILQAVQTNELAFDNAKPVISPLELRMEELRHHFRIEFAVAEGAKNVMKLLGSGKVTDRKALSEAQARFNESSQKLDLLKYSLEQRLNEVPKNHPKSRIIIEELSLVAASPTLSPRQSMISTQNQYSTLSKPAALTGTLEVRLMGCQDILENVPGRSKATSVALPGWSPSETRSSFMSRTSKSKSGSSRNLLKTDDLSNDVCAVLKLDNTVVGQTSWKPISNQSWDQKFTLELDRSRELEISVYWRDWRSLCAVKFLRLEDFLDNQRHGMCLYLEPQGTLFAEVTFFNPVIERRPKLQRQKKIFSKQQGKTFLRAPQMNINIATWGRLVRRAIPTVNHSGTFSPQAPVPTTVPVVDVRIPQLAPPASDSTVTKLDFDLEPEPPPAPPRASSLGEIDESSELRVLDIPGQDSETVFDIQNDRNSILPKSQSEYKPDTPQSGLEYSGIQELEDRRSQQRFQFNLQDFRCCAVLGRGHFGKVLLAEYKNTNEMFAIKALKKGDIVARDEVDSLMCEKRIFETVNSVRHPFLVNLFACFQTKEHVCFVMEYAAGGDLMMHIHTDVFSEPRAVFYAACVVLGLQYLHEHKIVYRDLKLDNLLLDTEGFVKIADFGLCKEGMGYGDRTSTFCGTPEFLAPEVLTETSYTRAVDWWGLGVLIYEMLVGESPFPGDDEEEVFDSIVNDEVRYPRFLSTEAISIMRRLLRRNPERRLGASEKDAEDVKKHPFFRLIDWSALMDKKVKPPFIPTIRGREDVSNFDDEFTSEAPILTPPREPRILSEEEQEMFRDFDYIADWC
PIM2 (human), sequence (Q9P1W9 whole entry, looked up): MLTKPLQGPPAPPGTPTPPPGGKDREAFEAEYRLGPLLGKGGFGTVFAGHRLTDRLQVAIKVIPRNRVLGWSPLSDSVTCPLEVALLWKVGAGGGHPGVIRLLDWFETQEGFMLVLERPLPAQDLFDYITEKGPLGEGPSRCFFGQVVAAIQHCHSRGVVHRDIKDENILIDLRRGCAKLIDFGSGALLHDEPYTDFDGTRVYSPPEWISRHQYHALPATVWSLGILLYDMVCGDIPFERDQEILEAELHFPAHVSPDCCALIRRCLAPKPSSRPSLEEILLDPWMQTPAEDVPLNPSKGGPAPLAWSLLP
GSG2 (human), sequence (Q8TF76 whole entry, looked up): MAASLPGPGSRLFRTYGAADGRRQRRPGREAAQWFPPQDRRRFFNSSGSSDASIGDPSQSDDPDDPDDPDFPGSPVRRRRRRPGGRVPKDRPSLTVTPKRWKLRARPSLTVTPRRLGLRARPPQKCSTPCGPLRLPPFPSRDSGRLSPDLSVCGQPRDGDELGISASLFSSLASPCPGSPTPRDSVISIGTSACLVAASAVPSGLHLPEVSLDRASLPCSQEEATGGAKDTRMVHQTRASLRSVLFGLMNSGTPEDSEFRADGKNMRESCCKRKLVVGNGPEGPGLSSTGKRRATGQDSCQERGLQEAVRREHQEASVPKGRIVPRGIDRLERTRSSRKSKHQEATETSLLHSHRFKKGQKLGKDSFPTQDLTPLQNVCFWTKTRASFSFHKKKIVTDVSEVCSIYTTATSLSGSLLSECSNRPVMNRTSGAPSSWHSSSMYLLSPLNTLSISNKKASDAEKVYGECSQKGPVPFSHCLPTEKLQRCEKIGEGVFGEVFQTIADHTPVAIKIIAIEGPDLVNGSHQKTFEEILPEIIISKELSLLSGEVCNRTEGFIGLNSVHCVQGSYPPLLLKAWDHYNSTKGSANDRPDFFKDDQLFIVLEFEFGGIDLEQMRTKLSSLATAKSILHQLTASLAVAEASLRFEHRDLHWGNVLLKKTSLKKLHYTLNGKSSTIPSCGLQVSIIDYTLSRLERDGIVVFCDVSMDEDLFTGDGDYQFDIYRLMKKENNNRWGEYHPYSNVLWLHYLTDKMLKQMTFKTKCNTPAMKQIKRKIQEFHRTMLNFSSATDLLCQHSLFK
ULK2 (human), sequence (Q8IYT8 whole entry, looked up): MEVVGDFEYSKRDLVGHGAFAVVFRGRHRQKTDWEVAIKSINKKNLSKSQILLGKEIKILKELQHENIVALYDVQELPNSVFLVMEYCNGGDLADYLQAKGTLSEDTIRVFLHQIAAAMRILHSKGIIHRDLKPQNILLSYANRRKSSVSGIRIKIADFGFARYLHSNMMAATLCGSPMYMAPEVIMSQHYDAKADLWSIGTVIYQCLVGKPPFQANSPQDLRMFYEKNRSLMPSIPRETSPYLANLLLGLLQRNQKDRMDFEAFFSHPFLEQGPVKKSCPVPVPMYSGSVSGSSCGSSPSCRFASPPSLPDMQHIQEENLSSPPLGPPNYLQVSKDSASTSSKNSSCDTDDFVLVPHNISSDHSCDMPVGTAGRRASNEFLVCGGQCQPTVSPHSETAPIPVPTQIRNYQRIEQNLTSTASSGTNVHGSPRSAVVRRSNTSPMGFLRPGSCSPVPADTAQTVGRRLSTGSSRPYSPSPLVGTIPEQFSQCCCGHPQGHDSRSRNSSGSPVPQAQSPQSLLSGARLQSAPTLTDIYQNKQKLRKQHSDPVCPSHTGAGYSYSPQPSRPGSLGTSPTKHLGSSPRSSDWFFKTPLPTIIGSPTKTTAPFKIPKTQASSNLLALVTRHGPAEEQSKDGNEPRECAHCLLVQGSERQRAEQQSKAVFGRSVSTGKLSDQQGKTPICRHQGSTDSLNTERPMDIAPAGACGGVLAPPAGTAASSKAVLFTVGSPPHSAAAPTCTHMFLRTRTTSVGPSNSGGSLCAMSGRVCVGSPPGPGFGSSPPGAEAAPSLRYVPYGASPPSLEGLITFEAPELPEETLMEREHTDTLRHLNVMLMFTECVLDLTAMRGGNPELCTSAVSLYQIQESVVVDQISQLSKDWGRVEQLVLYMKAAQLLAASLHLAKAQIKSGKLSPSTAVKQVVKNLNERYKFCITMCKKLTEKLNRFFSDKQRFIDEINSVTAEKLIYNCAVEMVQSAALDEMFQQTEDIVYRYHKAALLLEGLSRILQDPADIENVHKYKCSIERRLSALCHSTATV
CSNK1G1 (human), sequence (Q9HCP0 whole entry, looked up): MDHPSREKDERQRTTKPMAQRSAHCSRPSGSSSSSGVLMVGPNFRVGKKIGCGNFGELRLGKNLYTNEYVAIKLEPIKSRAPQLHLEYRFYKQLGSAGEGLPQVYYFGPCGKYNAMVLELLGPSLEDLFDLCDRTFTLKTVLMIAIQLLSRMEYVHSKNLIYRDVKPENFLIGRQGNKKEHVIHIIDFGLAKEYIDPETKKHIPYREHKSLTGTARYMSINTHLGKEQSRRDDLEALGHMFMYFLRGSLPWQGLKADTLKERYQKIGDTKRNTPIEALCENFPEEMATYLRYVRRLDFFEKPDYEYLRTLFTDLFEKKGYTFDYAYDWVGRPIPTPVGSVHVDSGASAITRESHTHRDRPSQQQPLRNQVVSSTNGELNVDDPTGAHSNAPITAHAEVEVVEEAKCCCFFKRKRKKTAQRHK

COc1ccc(Cl)cc1NC(=O)Nc1cc(C)nc2ccccc12
residual activity [1]: 87.8% | residual activity [2]: 89% | residual activity [3]: 105% | residual activity [4]: 97.8% | residual activity [5]: 99.8% | residual activity [6]: 102% | residual activity [7]: 89.8% | residual activity [8]: 98.2% | residual activity [9]: 132% | residual activity [10]: 94.6% | residual activity [11]: 94.9% | residual activity [12]: 94.9% | residual activity [13]: 101% | residual activity [14]: 98.1% | residual activity [15]: 97.6% | residual activity [16]: 100% | residual activity [17]: 89.7% | residual activity [18]: 95.7% | residual activity [19]: 89% | residual activity [20]: 92.8% | residual activity [21]: 105% | residual activity [22]: 97.9% | residual activity [23]: 97.1% | residual activity [24]: 99.2% | residual activity [25]: 87.3% | residual activity [26]: 108% | residual activity [27]: 94.6% | residual activity [28]: 101% | residual activity [29]: 103% | residual activity [30]: 106% | residual activity [31]: 124% | residual activity [32]: 86.1% | residual activity [33]: 96.2% | residual activity [34]: 98.7% | residual activity [35]: 114% | residual activity [36]: 88.4% | residual activity [37]: 98.2% | residual activity [38]: 82.4% | residual activity [39]: 101% | residual activity [40]: 94.1% | residual activity [41]: 102% | residual activity [42]: 84.6%

Ic1cccc(CSc2nnc(-c3ccncc3)o2)c1
residual activity [1]: 100% | residual activity [2]: 97.2% | residual activity [3]: 110% | residual activity [4]: 95.4% | residual activity [5]: 102% | residual activity [6]: 101% | residual activity [7]: 97.5% | residual activity [8]: 109% | residual activity [9]: 123% | residual activity [10]: 97.6% | residual activity [11]: 99.1% | residual activity [12]: 101% | residual activity [13]: 98% | residual activity [14]: 95.8% | residual activity [15]: 106% | residual activity [16]: 96.2% | residual activity [17]: 100% | residual activity [18]: 95.9% | residual activity [19]: 99.6% | residual activity [20]: 101% | residual activity [21]: 100% | residual activity [22]: 91.7% | residual activity [23]: 98.4% | residual activity [24]: 101% | residual activity [25]: 103% | residual activity [26]: 93.8% | residual activity [27]: 91.4% | residual activity [28]: 96.2% | residual activity [29]: 111% | residual activity [30]: 111% | residual activity [31]: 42.7% | residual activity [32]: 92.4% | residual activity [33]: 96.4% | residual activity [34]: 102% | residual activity [35]: 86.9% | residual activity [36]: 97.2% | residual activity [37]: 105% | residual activity [38]: 104% | residual activity [39]: 95.4% | residual activity [40]: 102% | residual activity [41]: 102% | residual activity [42]: 93.1%

O=C(c1cc2cc(O)ccc2[nH]1)c1cc2cc(O)ccc2[nH]1
residual activity [1]: 78.3% | residual activity [2]: 90.6% | residual activity [3]: 54.6% | residual activity [4]: 99.6% | residual activity [5]: 108% | residual activity [6]: 90.6% | residual activity [7]: 81.2% | residual activity [8]: 76.6% | residual activity [9]: 84.1% | residual activity [10]: 96.4% | residual activity [11]: 103% | residual activity [12]: 104% | residual activity [13]: 95.3% | residual activity [14]: 51.7% | residual activity [15]: 98.9% | residual activity [16]: 67.1% | residual activity [17]: 97.1% | residual activity [18]: 34.8% | residual activity [19]: 24.5% | residual activity [20]: 53.6% | residual activity [21]: 102% | residual activity [22]: 93.1% | residual activity [23]: 54.9% | residual activity [24]: 97% | residual activity [25]: 91.6% | residual activity [26]: 108% | residual activity [27]: 37% | residual activity [28]: 105% | residual activity [29]: 77.5% | residual activity [30]: 94.5% | residual activity [31]: 75.7% | residual activity [32]: 86.5% | residual activity [33]: 37.7% | residual activity [34]: 33.7% | residual activity [35]: 111% | residual activity [36]: 96.1% | residual activity [37]: 99% | residual activity [38]: 90.4% | residual activity [39]: 103% | residual activity [40]: 98.8% | residual activity [41]: 57.3% | residual activity [42]: 85.3%
